Earlier results in patent US4405354A, “Elimination of odors from waste material” (priority 1980, dated 1983).
Read-outs that look alike come from different tables or passages of the source.

SMILES: N [aqueous ammonia]
- Kb (0 °C): 1.374 × 10^-5
- Kb (5 °C): 1.479 × 10^-5
- Kb (10 °C): 1.570 × 10^-5
- Kb (15 °C): 1.652 × 10^-5
- Kb (20 °C): 1.710 × 10^-5
- Kb (25 °C): 1.774 × 10^-5
- Kb (30 °C): 1.820 × 10^-5
- Kb (35 °C): 1.849 × 10^-5
- Kb (40 °C): 1.862 × 10^-5
- Kb (45 °C): 1.879 × 10^-5
- Kb (50 °C): 1.892 × 10^-5
